molecular target: T1, Jak1 (Homo sapiens, UniProt P23458); assay: Jak Biochemical HTRF Assay (Jak1); details: IC50 class, recombinant GST-tagged catalytic domain, read-out: Jak1 activity
T1 construct: using a recombinant purified GST-tagged catalytic domain for each enzyme; GST; purchased Invitrogen M4290
Outline: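 Recombinant GST-tagged Jak1 catalytic domain was preincubated with compound and peptide substrate for 30 min at room temperature, and the reaction was then started with ATP and run 120 min. Buffer contained 2 mM DTT and 0.05% BSA. Read-out was HTRF (665/615 nm) with Eu-pY20 antibody and streptavidin-Dylight, and IC50 values came from 4-parameter fits of percent inhibition.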

T1 sequence (P23458 875-1153 limits assumed): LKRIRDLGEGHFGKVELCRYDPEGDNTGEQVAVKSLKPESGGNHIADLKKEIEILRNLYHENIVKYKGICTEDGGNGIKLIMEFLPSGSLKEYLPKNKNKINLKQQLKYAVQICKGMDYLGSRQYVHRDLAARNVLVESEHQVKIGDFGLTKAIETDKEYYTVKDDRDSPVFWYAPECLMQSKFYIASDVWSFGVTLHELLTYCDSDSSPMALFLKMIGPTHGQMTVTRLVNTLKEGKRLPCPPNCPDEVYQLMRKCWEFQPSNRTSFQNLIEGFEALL

| IC50 [nM] | Compound |
| --- | --- |
| 100 to 1000 | CC1CCN(C(=O)CC#N)C2CCN(c3ncnc4[nH]ccc34)C12 [Example 22, (3aS,7S,7aS and 3aR,7R,7aR) 3-[7-methyl-1-(7H-pyrrolo[2,3-d]pyrimidin-4-yl)octahydro-4H-pyrrolo[3,2-b]pyridin-4-yl]-3-oxopropanenitrile] |
| 10 to 100 | COC(=O)c1ccc(CNC(=O)N2CCC[C@@H]3[C@H]2CCN3c2ncnc3[nH]ccc23)cc1 [Example 23, methyl 4-[({[(3aR,7aR)-1-(7H-pyrrolo[2,3-d]pyrimidin-4-yl)octahydro-4H-pyrrolo[3,2-b]-pyridine-4-yl]carbonyl}amino)methyl]benzoate] |
| 1 to 10 | COC(=O)c1ccc(CN(C)C(=O)N2CCC[C@@H]3[C@H]2CCN3c2ncnc3[nH]ccc23)cc1 [Example 24, methyl 4-[(methyl{[(3aR,7aR)-1-(7H-pyrrolo[2,3-d]pyrimidin-4-yl)octahydro-4H-pyrrolo[3,2-b]-pyridin-4-yl]carbonyl}amino)methyl]benzoate] |
| 100 to 1000 | O=C(O)c1ccc(CNC(=O)N2CCC[C@@H]3[C@H]2CCN3c2ncnc3[nH]ccc23)cc1 [Example 25, 4-[({[(3aR,7aR)-1-(7H-pyrrolo[2,3-d]pyrimidin-4-yl)octahydro-4H-pyrrolo[3,2-b]pyridin-4-yl]carbonyl}amino)methyl]benzoic acid] |
| 10 to 100 | COC(=O)c1ccc(CCC(=O)N2CCC[C@@H]3[C@H]2CCN3c2ncnc3[nH]ccc23)cc1 [Example 26, methyl 4-{3-oxo-3-[(3aR,7aR)-1-(7H-pyrrolo[2,3-d]pyrimidin-4-yl)octahydro-4H-pyrrolo[3,2-b]pyridine-4-yl]propyl}benzoate] |
| 10 to 100 | O=C(O)c1ccc(CCC(=O)N2CCC[C@@H]3[C@H]2CCN3c2ncnc3[nH]ccc23)cc1 [Example 27, 4-{3-oxo-3-[(3aR,7aR)-1-(7H-pyrrolo[2,3-d]pyrimidin-4-yl)octahydro-4H-pyrrolo[3,2-b]pyridin-4-yl]propyl}benzoic acid] |
| 100 to 1000 | O=C(O)c1ccc(CCOC(=O)N2CCC[C@@H]3[C@H]2CCN3c2ncnc3[nH]ccc23)cc1 [Example 28, 4-[2-({[(3aR,7aR)-1-(7H-pyrrolo[2,3-d]pyrimidin-4-yl)octahydro-4H-pyrrolo[3,2-b]pyridin-4-yl]carbonyl}oxy)ethyl]benzoic acid] |
| 100 to 1000 | O=C(c1ccc(N2CCOCC2)cc1)N1CCCC2C1CCN2c1ncnc2[nH]ccc12 [Example 29-1, (3aS,7aS and 3aR,7aR) 4-{4-[(4-morpholin-4-ylphenyl)carbonyl]octahydro-1H-pyrrolo[3,2-b]pyridin-1-yl}-7H-pyrrolo[2,3-d]pyrimidine] |
| 10 to 100 | COc1ccc(CC(=O)N2CCCC3C2CCN3c2ncnc3[nH]ccc23)cc1 (stereo not shown) [Example 29-4, 4-{4-[(4-methoxyphenyl)acetyl]octahydro-1H-pyrrolo[3,2-b]pyridin-1-yl}-7H-pyrrolo[2,3-d]pyrimidine] |
| 10 to 100 | O=C(Cc1ccc(C(F)(F)F)cc1)N1CCCC2C1CCN2c1ncnc2[nH]ccc12 (stereo not shown) [Example 29-5, 4-(4-{[4-(trifluoromethyl)phenyl]acetyl}octahydro-1H-pyrrolo[3,2-b]pyridin-1-yl)-7H-pyrrolo[2,3-d]pyrimidine] |
| 100 to 1000 | CN1CCN(c2ccc(C(=O)N3CCCC4C3CCN4c3ncnc4[nH]ccc34)cc2)CC1 (stereo not shown) [Example 29-6, 4-(4-{[4-(4-methylpiperazin-1-yl)phenyl]carbonyl}octahydro-1H-pyrrolo[3,2-b]pyridin-1-yl)-7H-pyrrolo[2,3-d]pyrimidine] |
| 10 to 100 | O=C(c1ccco1)N1CCC[C@@H]2[C@H]1CCN2c1ncnc2[nH]ccc12 [Example 29-9, 4-[(3 aR,7aR)-4-(furan-2-ylcarbonyl)octahydro-1H-pyrrolo[3,2-b]pyridin-1-yl]-7H-pyrrolo[2,3-d]pyrimidine] |
| 10 to 100 | O=C(c1cccnc1)N1CCC[C@@H]2[C@H]1CCN2c1ncnc2[nH]ccc12 [Example 29-10, 4-[(3aR,7aR)-4-(pyridin-3-ylcarbonyl)octahydro-1H-pyrrolo[3,2-b]pyridin-1-yl]-7H-pyrrolo[2,3-d]pyrimidine] |
| 100 to 1000 | O=C(c1ccccn1)N1CCC[C@@H]2[C@H]1CCN2c1ncnc2[nH]ccc12 [Example 29-11, 4-[(3aR,7aR)-4-(pyridin-2-ylcarbonyl)octahydro-1H-pyrrolo[3,2-b]pyridin-1-yl]-7H-pyrrolo[2,3-d]pyrimidine] |
| 10 to 100 | O=C(c1ccncc1)N1CCC[C@@H]2[C@H]1CCN2c1ncnc2[nH]ccc12 [Example 29-12, 4-[(3aR,7aR)-4-(pyridin-4-ylcarbonyl)octahydro-1H-pyrrolo[3,2-b]pyridin-1-yl]-7H-pyrrolo[2,3-d]pyrimidine] |
| 10 to 100 | O=C(c1cnccn1)N1CCC[C@@H]2[C@H]1CCN2c1ncnc2[nH]ccc12 [Example 29-13, 4-[(3aR,7aR)-4-(pyrazin-2-ylcarbonyl)octahydro-1H-pyrrolo[3,2-b]pyridin-1-yl]-7H-pyrrolo[2,3-d]pyrimidine] |

| IC50 [nM] | Compound |
| --- | --- |
| 100 to 1000 | Cc1cc(C(=O)N2CCC[C@@H]3[C@H]2CCN3c2ncnc3[nH]ccc23)no1 [Example 29-14, 4-{(3aR,7aR)-4[(5-methylisoxazol-3-yl)carbonyl]octahydro-1H-pyrrolo[3,2-b]pyridin-1-yl}-7H-pyrrolo[2,3-d]pyrimidine] |
| 10 to 100 | O=C(C1CCCCC1)N1CCC[C@@H]2[C@H]1CCN2c1ncnc2[nH]ccc12 [Example 29-15, 4-[(3aR,7aR)-4-(cyclohexylcarbonyl)octahydro-1H-pyrrolo[3,2-b]pyridin-1-yl]-7H-pyrrolo[2,3-d]pyrimidine] |
| 100 to 1000 | O=C1CCCN1CC(=O)N1CCC[C@@H]2[C@H]1CCN2c1ncnc2[nH]ccc12 [Example 29-16, 1-{2-oxo-2-[(3aR,7aR)-1-(7H-pyrrolo[2,3-d]pyrimidin-4-yl)octahydro-4H-pyrrolo[3,2-b]pyridin-4-yl]ethyl}pyrrolidin-2-one] |
| 10 to 100 | O=C(c1ccccc1Cl)N1CCC[C@@H]2[C@H]1CCN2c1ncnc2[nH]ccc12 [Example 29-17, 4-{(3aR,7aR)-4-[(2-chlorophenyl)carbonyl]octahydro-1H-pyrrolo[3,2-b]pyridin-1-yl}-7H-pyrrolo[2,3-d]pyrimidine] |
| 10 to 100 | O=C(c1cccc(Cl)c1)N1CCC[C@@H]2[C@H]1CCN2c1ncnc2[nH]ccc12 [Example 29-18, 4-{(3aR,7aR)-4-[(3-chlorophenyl)carbonyl]octahydro-1H-pyrrolo[3,2-b]pyridin-1-yl}-7H-pyrrolo[2,3-d]pyrimidine] |
| 10 to 100 | O=C(c1cccc2ccccc12)N1CCC[C@@H]2[C@H]1CCN2c1ncnc2[nH]ccc12 [Example 29-20, 4-[(3aR,7aR)-4-(naphthalen-1-ylcarbonyl)octahydro-1H-pyrrolo[3,2-b]pyridin-1-yl]-7H-pyrrolo[2,3-d]pyrimidine] |
| 10 to 100 | Cn1c(C(=O)N2CCC[C@@H]3[C@H]2CCN3c2ncnc3[nH]ccc23)cc2ccccc21 [Example 29-21, 4-{(3aR,7aR)-4-[(1-methyl-1H-indol-2-yl)carbonyl]octahydro-1H-pyrrolo[3,2-b]pyridin-1-yl}-7H-pyrrolo[2,3-d]pyrimidine] |
| 100 to 1000 | O=C(c1cccc(N2CCOCC2)c1)N1CCC[C@@H]2[C@H]1CCN2c1ncnc2[nH]ccc12 [Example 29-22, 4-{(3aR,7aR)-4-[(3-morpholin-4-ylphenyl)carbonyl]octahydro-1H-pyrrolo[3,2-b]pyridin-1-yl}-7H-pyrrolo[2,3-d]pyrimidine] |
| 100 to 1000 | O=C(c1ccccc1-c1ccccc1)N1CCC[C@@H]2[C@H]1CCN2c1ncnc2[nH]ccc12 [Example 29-23, 4-[(3aR,7aR)-4-(biphenyl-2-ylcarbonyl)octahydro-1H-pyrrolo[3,2-b]pyridin-1-yl]-7H-pyrrolo[2,3-d]pyrimidine] |
| 100 to 1000 | O=C(C(c1ccccc1)c1ccccc1)N1CCC[C@@H]2[C@H]1CCN2c1ncnc2[nH]ccc12 [Example 29-24, 4-[(3aR,7aR)-4-(diphenylacetyl)octahydro-1H-pyrrolo[3,2-b]pyridin-1-yl]-7H-pyrrolo[2,3-d]pyrimidine] |
| 100 to 1000 | O=C(c1cn2ccccc2n1)N1CCC[C@@H]2[C@H]1CCN2c1ncnc2[nH]ccc12 [Example 29-25, 4-[(3aR,7aR)-4-(imidazo[1,2-a]pyridin-2-ylcarbonyl)octahydro-1H-pyrrolo[3,2-b]pyridin-1-yl]-7H-pyrrolo[2,3-d]pyrimidine] |
| 10 to 100 | O=C(c1ccc2ccccc2c1)N1CCC[C@@H]2[C@H]1CCN2c1ncnc2[nH]ccc12 [Example 29-26, 4-[(3aR,7aR)-4-(naphthalen-2-ylcarbonyl)octahydro-1H-pyrrolo[3,2-b]pyridin-1-yl]-7H-pyrrolo[2,3-d]pyrimidine] |
| 10 to 100 | O=C(c1cn2cccnc2n1)N1CCC[C@@H]2[C@H]1CCN2c1ncnc2[nH]ccc12 [Example 29-27, 4-[(3aR,7aR)-4-(imidazo[1,2-a]pyrimidin-2-ylcarbonyl)octahydro-1H-pyrrolo[3,2-b]pyridin-1-yl]-7H-pyrrolo[2,3-d]pyrimidine] |
| 1 to 10 | O=C(c1cccs1)N1CCC[C@@H]2[C@H]1CCN2c1ncnc2[nH]ccc12 [Example 29-28, 4-[(3aR,7aR)-4-(thiophen-2-ylcarbonyl)octahydro-1H-pyrrolo[3,2-b]pyridin-1-yl]-7H-pyrrolo[2,3-d]pyrimidine] |
| 10 to 100 | N#Cc1ccc(C(=O)N2CCC[C@@H]3[C@H]2CCN3c2ncnc3[nH]ccc23)cc1 [Example 29-29, 4-{[(3aR,7aR)-1-(7H-pyrrolo[2,3-d]pyrimidin-4-yl)octahydro-4H-pyrrolo[3,2-b]pyridin-4-yl]carbonyl}benzonitrile] |

same assay, conditions: Jak1 activity, IC50 class, recombinant GST-tagged catalytic domain

| Compound | IC50 [nM] |
| --- | --- |
| O=C(c1cc2ccccc2[nH]1)N1CCC[C@@H]2[C@H]1CCN2c1ncnc2[nH]ccc12 [Example 29-19, 4-[(3aR,7aR)-4-(1H-indol-2-ylcarbonyl)octahydro-1H-pyrrolo[3,2-b]pyridin-1-yl]-7H-pyrrolo[2,3-d]pyrimidine] | 100 to 1000 |

same assay, conditions: recombinant GST-tagged catalytic domain, 31.8 μM ATP, read-out: Representative IC50 values

| IC50 [nM] | Compound |
| --- | --- |
| 39 | COC(=O)c1ccc(CNC(=O)N2CCC[C@@H]3[C@H]2CCN3c2ncnc3[nH]ccc23)cc1 [Example 23, methyl 4-[({[(3aR,7aR)-1-(7H-pyrrolo[2,3-d]pyrimidin-4-yl)octahydro-4H-pyrrolo[3,2-b]-pyridine-4-yl]carbonyl}amino)methyl]benzoate] |
| 5 | O=C(c1cccs1)N1CCC[C@@H]2[C@H]1CCN2c1ncnc2[nH]ccc12 [Example 29-28, 4-[(3aR,7aR)-4-(thiophen-2-ylcarbonyl)octahydro-1H-pyrrolo[3,2-b]pyridin-1-yl]-7H-pyrrolo[2,3-d]pyrimidine] |

— patent US8937077B2, “Bicyclic diamines as janus kinase inhibitors” (Merck Sharp & Dohme Corp., priority 2010, dated 2015)
